Assay results reported in PubChem BioAssay (NCI).
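Interpolation was linear, between the two tested concentrations surrounding the appropriate level; five concentrations were tested over 48 hours in 96-well plates. At the GI50, growth is halved. TGI is the concentration that stops growth completely.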

What was measured:
Experiment in all cases: NCI tumour cell line growth inhibition, 48 h
[1] = system: COLO 205 colon
[2] = system: NCI/ADR-RES ovarian
[3] = system: OVCAR-3 ovarian
[4] = system: SK-OV-3 ovarian
[5] = system: A549 NSCLC
[6] = system: MALME-3M melanoma
[7] = system: NCI-H226 lung
[8] = system: 786-0 renal
[9] = system: ACHN renal
[10] = system: SNB-19 CNS
[11] = system: SK-MEL-2 melanoma
[12] = system: HCC-2998 colon
[13] = system: SW-620 colon
[14] = system: RPMI-8226 leukemia
[15] = system: EKVX NSCLC
[16] = system: MDA-MB-435
[17] = system: SK-MEL-28 melanoma
[18] = system: NCI-H522 lung
[19] = system: TK-10 renal
[20] = system: UO-31 renal
[21] = system: HCT-15 colon
[22] = system: MDA-MB-231 breast
[23] = system: K-562 leukemia
[24] = system: OVCAR-5 ovarian
[25] = system: SF-539 CNS
[26] = system: KM12 colon
[27] = system: IGROV1 ovarian
[28] = system: MCF7 breast
[29] = system: HS 578T breast
[30] = system: SF-268 CNS
[31] = system: SN12C renal
[32] = system: NCI-H460 lung
[33] = system: HOP-92 NSCLC
[34] = system: M14 melanoma
[35] = system: U251 CNS
[36] = system: DU-145 prostate
[37] = system: UACC-62 melanoma
[38] = system: T-47D breast
[39] = system: OVCAR-8 ovarian
[40] = system: BT-549 breast
[41] = system: SR leukemia
[42] = system: NCI-H23 lung
[43] = system: HCT-116 colon
[44] = system: HT29 colon
[45] = system: PC-3 prostate
[46] = system: HOP-62 NSCLC
[47] = system: UACC-257 melanoma
[48] = system: MDA-N
[49] = system: SK-MEL-5 melanoma
[50] = system: A498 renal
[51] = system: LOX IMVI melanoma
[52] = system: CAKI-1 renal
[53] = system: OVCAR-4 ovarian
[54] = system: SF-295 CNS
[55] = system: RXF 393 renal
[56] = system: HL-60(TB) leukemia
[57] = system: MOLT-4 leukemia
[58] = system: SNB-75 CNS
[59] = system: CCRF-CEM leukemia

`OCC1CC[N-]CC1.OCC1CC[N-]CC1.[Cl][Pt+2]([Cl])([Cl])[Cl]` was tested, and the GI50 [1] was 29.3 µM, the GI50 [2] was 33.8 µM and the GI50 [3] was 45.9 µM. For the same compound, the GI50 [4] was 36.9 µM, the GI50 [5] was 52.7 µM and the GI50 [6] was 36.4 µM. For the same compound, the GI50 [7] was 39.5 µM, the GI50 [8] was 34.9 µM and the GI50 [9] was 38.8 µM. It also gave a GI50 [10] of 48 µM, a GI50 [11] of 27 µM and a TGI [11] of 67.3 µM. For the same compound, the GI50 [12] was 35.4 µM, the GI50 [13] was 23 µM and the GI50 [14] was 15.2 µM. It also gave a TGI [14] of 53.1 µM, a GI50 [15] of 30.7 µM and a GI50 [16] of 24.4 µM. For the same compound, the TGI [16] was 64.9 µM, the GI50 [17] was 60 µM and the GI50 [18] was 9.53 µM. The TGI [18] was 46.3 µM, the GI50 [19] was 37.3 µM and the GI50 [20] was 31.2 µM. It also gave a TGI [20] of 89.9 µM, a GI50 [21] of 27.8 µM and a GI50 [22] of 33.6 µM. For the same compound, the GI50 [23] was 35.9 µM, the GI50 [24] was 22.7 µM and the TGI [24] was 51.5 µM. The GI50 [25] was 41.9 µM, the GI50 [26] was 28.9 µM and the TGI [26] was 77.3 µM. It also gave a GI50 [27] of 25.2 µM, a GI50 [28] of 26.2 µM and a GI50 [29] of 45.8 µM. It also gave a GI50 [30] of 40.5 µM, a GI50 [31] of 30.8 µM and a GI50 [32] of 27.9 µM. It also gave a TGI [32] of 95.7 µM, a GI50 [33] of 34.2 µM and a TGI [33] of 87 µM. It also gave a GI50 [34] of 22.2 µM, a TGI [34] of 65 µM and a GI50 [35] of 19.6 µM. For the same compound, the TGI [35] was 53 µM, the GI50 [36] was 20.8 µM and the TGI [36] was 61.5 µM. The GI50 [37] was 29.4 µM, the GI50 [38] was 15.2 µM and the TGI [38] was 58.1 µM. It also gave a GI50 [39] of 31.1 µM, a GI50 [40] of 27 µM and a GI50 [41] of 8.08 µM. It also gave a GI50 [42] of 28.6 µM, a GI50 [43] of 25.6 µM and a TGI [43] of 86.5 µM. It also gave a GI50 [44] of 17.1 µM, a TGI [44] of 51.7 µM and a TGI [45] of 73 µM. For the same compound, the GI50 [46] was 33.1 µM, the GI50 [47] was 31 µM and the GI50 [48] was 28.9 µM. For the same compound, the GI50 [49] was 34.5 µM, the GI50 [50] was 95.3 µM and the GI50 [51] was 11.4 µM. For the same compound, the GI50 [52] was 20.3 µM, the TGI [52] was 81.5 µM and the GI50 [53] was 42.5 µM.
`Cc1ccc(S(=O)(=O)OC2CC(C(C)(C)C)CCC2c2ccccc2)cc1` (configuration not stated) showed a TGI [1] of over 100 µM, a TGI [2] of over 100 µM and a TGI [3] of over 100 µM. It also gave a TGI [4] of over 100 µM, a TGI [5] of over 100 µM and a TGI [7] of over 100 µM. For the same compound, the TGI [8] was over 100 µM, the TGI [9] was over 100 µM and the TGI [10] was over 100 µM. It also gave a TGI [11] of over 100 µM, a TGI [54] of over 100 µM and a TGI [13] of over 100 µM. For the same compound, the TGI [14] was over 100 µM, the TGI [15] was over 100 µM and the TGI [16] was over 100 µM. It also gave a TGI [17] of over 100 µM, a TGI [55] of over 100 µM and a TGI [19] of over 100 µM. For the same compound, the TGI [20] was over 100 µM, the TGI [21] was over 100 µM and the TGI [22] was over 100 µM. The TGI [23] was over 100 µM, the TGI [24] was over 100 µM and the TGI [25] was over 100 µM. It also gave a TGI [56] of over 100 µM, a TGI [26] of over 100 µM and a TGI [27] of over 100 µM. The TGI [28] was over 100 µM, the TGI [31] was over 100 µM and the TGI [32] was over 100 µM. The TGI [33] was over 100 µM, the TGI [34] was over 100 µM and the TGI [35] was over 100 µM. The TGI [36] was over 100 µM, the TGI [37] was over 100 µM and the TGI [57] was over 100 µM. For the same compound, the TGI [38] was over 100 µM, the TGI [58] was 68 µM and the TGI [39] was over 100 µM. For the same compound, the TGI [40] was over 100 µM, the TGI [41] was over 100 µM and the TGI [42] was over 100 µM. For the same compound, the TGI [43] was over 100 µM, the TGI [44] was over 100 µM and the TGI [45] was over 100 µM. It also gave a TGI [46] of over 100 µM, a TGI [47] of over 100 µM and a TGI [48] of over 100 µM. The TGI [49] was over 100 µM, the TGI [50] was over 100 µM and the TGI [51] was over 100 µM. For the same compound, the TGI [52] was over 100 µM and the TGI [53] was over 100 µM.
`COc1ccc(-c2oc3cc(-c4cc5oc(-c6ccc(OC)cc6)c(-c6ccc(OC)cc6)c5cc4OC)c(OC)cc3c2-c2ccc(OC)cc2)cc1` showed a TGI [1] of over 100 µM, a TGI [2] of over 100 µM and a TGI [3] of over 100 µM. It also gave a TGI [4] of over 100 µM, a TGI [5] of over 100 µM and a TGI [6] of over 100 µM. For the same compound, the TGI [7] was over 100 µM, the TGI [8] was over 100 µM and the TGI [9] was over 100 µM. For the same compound, the TGI [10] was over 100 µM, the TGI [59] was over 100 µM and the TGI [12] was over 100 µM. It also gave a TGI [54] of over 100 µM, a TGI [13] of over 100 µM and a TGI [14] of over 100 µM. It also gave a TGI [15] of over 100 µM, a TGI [16] of over 100 µM and a TGI [17] of over 100 µM. The TGI [18] was over 100 µM, the TGI [55] was over 100 µM and the TGI [19] was over 100 µM. It also gave a TGI [20] of over 100 µM, a TGI [21] of over 100 µM and a TGI [22] of over 100 µM. The TGI [23] was over 100 µM, the TGI [24] was over 100 µM and the TGI [25] was over 100 µM. The TGI [26] was over 100 µM, the TGI [27] was over 100 µM and the TGI [28] was over 100 µM. For the same compound, the TGI [29] was over 100 µM, the TGI [30] was over 100 µM and the TGI [31] was over 100 µM. It also gave a TGI [32] of over 100 µM, a TGI [33] of over 100 µM and a TGI [34] of over 100 µM. The TGI [35] was over 100 µM, the TGI [36] was over 100 µM and the TGI [37] was over 100 µM. The TGI [57] was over 100 µM, the TGI [58] was over 100 µM and the TGI [39] was over 100 µM. The TGI [40] was over 100 µM, the TGI [41] was over 100 µM and the TGI [42] was over 100 µM. The TGI [43] was over 100 µM, the TGI [44] was over 100 µM and the TGI [45] was over 100 µM. It also gave a TGI [46] of over 100 µM, a TGI [47] of over 100 µM and a TGI [48] of over 100 µM. For the same compound, the TGI [49] was over 100 µM, the TGI [50] was over 100 µM and the TGI [51] was over 100 µM. The TGI [52] was over 100 µM and the TGI [53] was over 100 µM.
In the case of `CCCCCC/C=C\CCCCCCCCC(=O)c1cccc(OC)c1OC`, the TGI [1] is reported as over 100 µM, the TGI [2] is reported as over 100 µM and the TGI [4] is reported as over 100 µM. The TGI [5] was over 100 µM, the TGI [6] was over 100 µM and the TGI [7] was over 100 µM. It also gave a TGI [8] of over 100 µM, a TGI [9] of over 100 µM and a TGI [10] of over 100 µM. It also gave a TGI [11] of over 100 µM, a TGI [59] of over 100 µM and a TGI [12] of over 100 µM. It also gave a TGI [54] of over 100 µM, a TGI [13] of over 100 µM and a TGI [14] of over 100 µM. It also gave a TGI [15] of over 100 µM, a TGI [16] of over 100 µM and a TGI [17] of over 100 µM. It also gave a TGI [18] of over 100 µM, a TGI [55] of 68.3 µM and a TGI [19] of over 100 µM. For the same compound, the TGI [20] was over 100 µM, the TGI [21] was over 100 µM and the TGI [22] was over 100 µM. It also gave a TGI [23] of over 100 µM, a TGI [24] of over 100 µM and a TGI [25] of over 100 µM. It also gave a TGI [56] of 69.9 µM, a TGI [26] of over 100 µM and a TGI [27] of over 100 µM. For the same compound, the TGI [29] was over 100 µM, the TGI [30] was over 100 µM and the TGI [31] was over 100 µM. It also gave a TGI [34] of over 100 µM, a TGI [35] of over 100 µM and a TGI [36] of over 100 µM. It also gave a TGI [37] of over 100 µM, a TGI [57] of over 100 µM and a TGI [38] of over 100 µM. The TGI [58] was over 100 µM, the TGI [39] was over 100 µM and the TGI [40] was over 100 µM. The TGI [41] was over 100 µM, the TGI [42] was over 100 µM and the TGI [43] was over 100 µM. For the same compound, the TGI [44] was over 100 µM, the TGI [45] was over 100 µM and the TGI [46] was over 100 µM. It also gave a TGI [47] of over 100 µM, a TGI [48] of over 100 µM and a TGI [49] of 60.9 µM. For the same compound, the TGI [50] was over 100 µM, the TGI [51] was 32.9 µM and the TGI [52] was over 100 µM.
